Measurements published in US11174298B2, “Preparation and use of ginsentides and ginsentide-like peptides” (priority 2016, dated 2021).

Legend:
[1] = system: human endothelial cells (HUVEC-CS); assay: Cellular NO synthesis in HUVEC-CS (DAF-2 DA staining); type: cell-based
α1-adrenergic receptor = assay: Phenylephrine-induced aortic ring contraction, isometric tension, ex vivo; design: species or system rat; conditions: thoracic aorta pre-contracted with phenylephrine (0.1 μM)
isolated thoracic aorta = assay: KCl-induced aortic ring contraction, isometric tension, ex vivo; design: species or system rat; conditions: thoracic aorta pre-contracted with KCl (30 mM)
H9c2 cells = assay: MTT cell viability of H9c2 cells, co-treatment with DOX; type: cell-based, rat
Description: To identify whether ginsentides can attenuate DOX-induced cardiotoxicity in cardiomyocytes, cell viability after drug treatment was measured by MTT assay.
After 24 h co-treatment of DOX with ginsentides, the viability of H9c2 cells was enhanced by ˜20% compared to the DOX-alone treatment (FIG. 43.).

[2] = Heparin HPLC affinity column; type: binding
Description: Heparin-binding properties of ginsentides using heparin HPLC affinity column.

Molecule | Cellular NO release compared among ginsentides [1] | Relaxation of phenylephrine-induced aortic ring contraction (α1-adrenergic receptor) | Relaxation of KCl-induced contracted aortic ring (isolated thoracic aorta) | Protective effects on cardiomyocytes during DOX-treatment (H9c2 cells) | Retention in heparin HPLC affinity column [2]
CISSGGWCGFD-LHGCCG--NCGCLV--GFCYGTGC- (CISSGGWCGFDLHGCCGNCGCLVGFCYGTGC; listed as Panax quinquefolius) [Ginsentide TP8] | comparable cellular NO release | relaxes phenylephrine-induced aortic ring contraction | not KCI-induced contracted aortic ring | – | –
CC(C)=CCC[C@](C)(O[C@@H]1O[C@H](CO)[C@@H](O)[C@H](O)[C@H]1O)[C@H]1CC[C@]2(C)[C@@H]1[C@H](O)C[C@@H]1[C@@]3(C)CC[C@H](O)C(C)(C)[C@@H]3[C@@H](O[C@@H]3O[C@H](CO)[C@@H](O)[C@H](O)[C@H]3O)C[C@]12C [ginsenoside Rg1] | – | – | – | did not showed any protective effects | –
CC(C)=CCC[C@](C)(O[C@@H]1O[C@H](CO)[C@@H](O)[C@H](O)[C@H]1O)[C@H]1CC[C@]2(C)[C@@H]1[C@H](O)C[C@@H]1[C@@]3(C)CC[C@H](O)C(C)(C)[C@@H]3[C@@H](O[C@@H]3O[C@H](CO)[C@@H](O)[C@H](O)[C@H]3O[C@@H]3O[C@@H](C)[C@H](O)[C@@H](O)[C@H]3O)C[C@]12C [ginsenoside Re] | – | – | – | did not showed any protective effects | –
CC(C)=CCC[C@](C)(O[C@@H]1O[C@H](CO[C@@H]2O[C@H](CO)[C@@H](O)[C@H](O)[C@H]2O)[C@@H](O)[C@H](O)[C@H]1O)[C@H]1CC[C@]2(C)[C@@H]1[C@H](O)C[C@@H]1[C@@]3(C)CC[C@H](O[C@@H]4O[C@H](CO)[C@@H](O)[C@H](O)[C@H]4O[C@@H]4O[C@H](CO)[C@@H](O)[C@H](O)[C@H]4O)C(C)(C)[C@@H]3CC[C@]12C [ginsenoside Rb1] | – | – | – | did not showed any protective effects | –
CKSAGTWCGFD-PHGCCG--SCGCLV--GFCYGVSC- (CKSAGTWCGFDPHGCCGSCGCLVGFCYGVSC; Panax ginseng) [Ginsentide TP3] | comparable cellular NO release | relaxes phenylephrine-induced aortic ring contraction | not KCI-induced contracted aortic ring | – | retented in a heparin HPLC affinity column
CKSGGSWCGFD-PHGCCG--NCGCLV--GFCYGTGC- [Ginsentide TP9] | – | – | – | – | retented in a heparin HPLC affinity column
